Experimental data published in patent publication US5622948A, “Pyrrole pyridazine and pyridazinone anti-inflammatory agents” (Syntex (U.S.A.) Inc., priority 1994, dated 1997).
Where two headings read alike, the source gives them in different places.

Assays:
[1] = tested on: adjuvant-induced arthritis; experiment: adjuvant-induced arthritis in the rat; assay type: in vivo
[2] = biological target: T1, COX II (Homo sapiens, UniProt P35354); experiment: PGE2 production in human adherent monocytes stimulated with LPS; assay type: cell-based; details: EIA, read-out: COX II IC50, inhibition of PGE2 production
T1 sequence (P35354 18-604): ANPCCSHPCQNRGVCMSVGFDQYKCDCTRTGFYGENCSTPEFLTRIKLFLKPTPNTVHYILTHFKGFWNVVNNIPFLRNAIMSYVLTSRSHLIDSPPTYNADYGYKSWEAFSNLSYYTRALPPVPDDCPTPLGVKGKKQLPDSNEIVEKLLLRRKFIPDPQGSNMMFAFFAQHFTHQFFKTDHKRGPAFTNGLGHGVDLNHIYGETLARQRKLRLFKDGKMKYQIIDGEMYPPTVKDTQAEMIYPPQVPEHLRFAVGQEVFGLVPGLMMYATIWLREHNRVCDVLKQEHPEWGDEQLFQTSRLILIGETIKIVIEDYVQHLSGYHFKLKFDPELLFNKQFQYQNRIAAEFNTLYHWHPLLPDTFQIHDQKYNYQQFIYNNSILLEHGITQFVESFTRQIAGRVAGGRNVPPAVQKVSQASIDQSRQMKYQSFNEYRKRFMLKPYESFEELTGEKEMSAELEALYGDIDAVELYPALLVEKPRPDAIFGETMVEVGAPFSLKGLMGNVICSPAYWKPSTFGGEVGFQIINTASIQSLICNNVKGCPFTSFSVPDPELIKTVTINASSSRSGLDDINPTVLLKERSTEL
Description: A summary of activities of Compound (16) against COX I and COX II in cell-free enzyme preparations and whole cells is presented in Table 1. The following abbreviations are used: AA is arachidonic acid, IL-1 is interleukin 1, PMA is phorbol myristate acetate, A23187 is a calcium ionophore (Sigma), BSA is bovine serum albumin and LPS is a lipopolysaccharide (Sigma).
Human adherent monocytes
30 min incubation with Compound (16)
18 hr stimulation with LPS
a) 10 min activation, A23187 + PMA
washing, transfer to fresh media
b) 30 min activation, A23187 + PMA
c) 10 min activation, 20 μM AA
d) 30 min activation, 20 μM AA
EIA determination of PGE2

[3] = two week range finding toxicity study in rats; assay type: in vivo, rat
Description: A two week range finding study in rats was carried out at daily doses of 10, 30, 100 and 300 mg/kg of Compound (16).

[4] = 10, 30, 100 and 300 mg/kg daily, two weeks

Cc1cc(Cc2ccc(=O)[nH]n2)n(C)c1C(=O)c1ccc(Cl)cc1 [Compound 16, 6-[1,4-dimethyl-5-(4chloro-benzoyl)-1H-pyrrol-2-ylmethyl]-2H-pyridazin-3-one]
ED40 ([1]; Rattus norvegicus, po, 408 h, based on the three assays): 3.2 ± 2.6 mg/kg | inhibition of adjuvant-induced arthritis ([1]; first test, 2 mg/kg/day, oral bid 17 days): 31% | inhibition of adjuvant-induced arthritis ([1]; first test, 5 mg/kg/day, oral bid 17 days): 66% | inhibition of adjuvant-induced arthritis ([1]; second test, 2 mg/kg/day): 43% | inhibition of adjuvant-induced arthritis ([1]; second test, 5 mg/kg/day): 48% | inhibition of adjuvant-induced arthritis ([1]; second test, 10 mg/kg/day): 52% | maximum inhibition of adjuvant-induced arthritis ([1]; third test, 100 mg/kg): 80% | IC50 ([2]; 30 min incubation; a) 10 min activation, A23187 + PMA): 200 nM | IC50 ([2]; 30 min incubation; b) 30 min activation, A23187 + PMA): < 100 nM | IC50 ([2]; 30 min incubation; c) 10 min activation, 20 μM AA): 2800 nM | IC50 ([2]; 30 min incubation; d) 30 min activation, 20 μM AA): 540 nM | clinical chemistry [3, 4]: No clinical chemistry abnormalities were detected | clinical signs [3, 4]: no adverse clinical signs were noted | gross necropsy findings [3, 4]: no drug-related gross necropsy findings | histopathological findings [3, 4]: no histopathological findings | lesions in the stomach or intestines [3, 4]: no lesions were noted in the stomach or intestines | intestinal lesions in toxicology range-finding study ([3]; up to 300 mg/kg/day for 14 days): no intestinal lesions were observed
